The record followed here is US10457677B2 (priority 2015, dated 2019).

The target in experiment [1] is purified human recombinant ATM (ataxia telangiectasia mutated), full length (Homo sapiens (Human), UniProt Q13315). The experiment can be described thus: ATM kinase assay - determination of ATM inhibition (IC50 ATM), TR-FRET. It counts as biochemical. The method in brief:
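Full-length enzyme, expressed in a mammalian cell line, pre-incubated 15 min with inhibitor in 25 mM HEPES pH 8.0, 10 mM Mg(CH3COO)2, 1 mM MnCl2, 0,1% BSA, 0,01% Brij 35, 5 mM DTT. Full-length cmyc-p53 (Sf21-expressed) and ATP then added, 30-35 min at 22° C. EDTA stop; p53 S15 phosphorylation read by TR-FRET antibodies.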

Experiment [2] concerns phosphorylation of CHK2 (phospho-Thr68) in HCT116 cells. The experiment can be described thus: Cellular pCHK2 assay: bleomycin-induced phosphorylation of CHK2 (phospho-Thr68), immunofluorescence high-content analysis. The class given is cell-based, human. The settings on record: Homo sapiens, HCT-116, 4 h, read-out: IC50 (pCHK2). The method in brief:
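HCT116 cells in DMEM with 10% FCS, incubated overnight at 37° C, then given compounds (1 nM to 30 μM, 0.5% DMSO) together with 10 μM bleomycin. Phospho-Thr68 CHK2 immunostained and imaged by high-content imager; nuclei with pCHK2 above background counted, cell count from propidium iodide DNA stain.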

A further experiment concerns the target mTOR (human) (Homo sapiens (Human), UniProt P42345). The experiment can be described thus: mTOR (human) kinase assay, [γ-33P-ATP] filter assay. It counts as biochemical. How it is done: Furthermore, the effect, in particular inhibition, of other kinases and thus the selectivity of the compounds according to the invention can be determined with the aid of the following assay:
mTOR (human) was incubated with 50 mM HEPES pH 7.5, 1 mM EGTA, 0.01% Tween 20, 2 mg/ml of the substrate, 3 mM MnCl2 and [γ-^33P-ATP] (specific activity approximately 500 cpm/pmol, concentration as necessary). The reaction was initiated by addition of MgATP solution. After incubation at room temperature for 40 minutes, the reaction was stopped by addition of 3% phosphoric acid. 10 μl of the reaction solution were then transferred dropwise onto a P30 filtermat and washed three times for 5 min in 75 mM phosphoric acid and once in methanol, dried and evaluated by means of liquid scintillation counting.

The target in another experiment is PI3K p110α/p85α (human) (Homo sapiens (Human), UniProt P42336). The experiment can be described thus: PI3K p110α/p85α (human), non-radioactive assay (HTRF). The class given is biochemical. The settings on record: read-out: IC50 (PI3Kalpha). (Time-resolved FRET reads energy transfer from a long-lived donor to a nearby acceptor.)
Sequence of PI3K p110α/p85α (human) (P42336 whole entry): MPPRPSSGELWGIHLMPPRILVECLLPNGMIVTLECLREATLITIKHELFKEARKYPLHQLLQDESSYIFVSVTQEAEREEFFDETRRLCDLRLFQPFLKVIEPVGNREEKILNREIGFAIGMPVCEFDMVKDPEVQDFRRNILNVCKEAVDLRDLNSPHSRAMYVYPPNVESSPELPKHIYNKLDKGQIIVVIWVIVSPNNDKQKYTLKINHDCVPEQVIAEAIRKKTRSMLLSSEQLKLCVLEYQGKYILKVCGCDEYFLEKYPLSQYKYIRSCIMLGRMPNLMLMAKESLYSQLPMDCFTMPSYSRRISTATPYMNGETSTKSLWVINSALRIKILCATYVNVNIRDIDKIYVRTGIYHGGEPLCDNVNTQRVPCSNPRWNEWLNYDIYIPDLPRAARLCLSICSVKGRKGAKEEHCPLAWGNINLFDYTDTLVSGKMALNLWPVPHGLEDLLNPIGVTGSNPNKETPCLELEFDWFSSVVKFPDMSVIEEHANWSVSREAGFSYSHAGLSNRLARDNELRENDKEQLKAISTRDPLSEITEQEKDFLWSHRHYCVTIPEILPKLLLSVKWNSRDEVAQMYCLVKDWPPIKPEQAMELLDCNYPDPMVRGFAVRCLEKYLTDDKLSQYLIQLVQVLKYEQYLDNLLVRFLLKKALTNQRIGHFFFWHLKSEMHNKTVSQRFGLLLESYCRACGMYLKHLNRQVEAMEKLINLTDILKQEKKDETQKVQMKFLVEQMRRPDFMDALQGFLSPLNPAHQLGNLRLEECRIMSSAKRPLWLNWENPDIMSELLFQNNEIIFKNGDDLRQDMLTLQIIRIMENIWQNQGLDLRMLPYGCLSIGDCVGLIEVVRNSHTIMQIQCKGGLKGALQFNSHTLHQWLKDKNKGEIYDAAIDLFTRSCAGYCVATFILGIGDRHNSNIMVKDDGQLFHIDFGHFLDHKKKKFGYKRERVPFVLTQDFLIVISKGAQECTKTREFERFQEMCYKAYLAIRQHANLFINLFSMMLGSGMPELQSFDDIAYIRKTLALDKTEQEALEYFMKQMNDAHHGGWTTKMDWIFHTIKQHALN
Sequence of PI3K p110α/p85α (human) (P27986 whole entry partner): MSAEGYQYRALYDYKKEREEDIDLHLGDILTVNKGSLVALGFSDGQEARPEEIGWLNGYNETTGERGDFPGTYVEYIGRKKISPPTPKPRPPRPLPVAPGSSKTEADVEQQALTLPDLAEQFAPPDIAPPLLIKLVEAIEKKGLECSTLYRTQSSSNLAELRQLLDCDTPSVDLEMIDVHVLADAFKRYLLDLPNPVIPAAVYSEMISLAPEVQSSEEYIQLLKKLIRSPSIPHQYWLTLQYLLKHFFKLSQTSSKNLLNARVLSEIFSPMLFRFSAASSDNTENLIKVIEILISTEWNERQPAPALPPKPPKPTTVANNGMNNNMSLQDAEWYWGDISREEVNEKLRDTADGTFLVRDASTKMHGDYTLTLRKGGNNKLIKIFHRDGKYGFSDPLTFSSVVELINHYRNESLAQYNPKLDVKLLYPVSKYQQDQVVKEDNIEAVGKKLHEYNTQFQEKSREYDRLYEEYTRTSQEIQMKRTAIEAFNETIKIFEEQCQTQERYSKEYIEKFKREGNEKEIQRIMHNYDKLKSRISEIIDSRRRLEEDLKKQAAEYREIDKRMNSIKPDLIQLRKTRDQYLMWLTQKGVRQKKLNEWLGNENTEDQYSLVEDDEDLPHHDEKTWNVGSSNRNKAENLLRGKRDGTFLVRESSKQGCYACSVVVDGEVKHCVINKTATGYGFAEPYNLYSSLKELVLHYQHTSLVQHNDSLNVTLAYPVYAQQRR
The target in the next experiment is PI3K p110β/p85α (human) (Homo sapiens (Human), UniProt P42338). The experiment can be described thus: PI3K p110β/p85α (human), non-radioactive assay (HTRF). It counts as biochemical. Particulars: read-out: IC50 (PI3Kbeta). As to the method:
PI3K p110β/p85α (Human), Non-radioactive Assay
PI3K p110β/p85α (human) was incubated in an assay buffer comprising 10 μM phosphati-dylinositol 4,5-bisphosphate and MgATP (concentration as necessary). The reaction was initiated by addition of MgATP solution. After an incubation time of 30 min at room temperature, the reaction was stopped by addition of a solution consisting of EDTA and biotinylated phosphatidylinositol 3,4,5-trisphosphate. Finally, the detection buffer, consisting of a europium-labelled anti-GST monoclonal antibody, a GST-labelled GRP1 PH domain and streptavidin allophycocyanin, was added. The plate was read out via homogeneous time-resolved fluorescence (HTRF) and the corresponding signals were evaluated via the formula HTRF=10000×(Em665nm/Em620nm).

The target of another experiment is PI3K p110δ/p85α (human) (Homo sapiens (Human), UniProt O00329). The experiment can be described thus: PI3K p110δ/p85α (human), non-radioactive assay (HTRF). It counts as biochemical. Particulars: read-out: IC50 (PI3Kdelta).
Sequence of PI3K p110δ/p85α (human) (O00329 whole entry): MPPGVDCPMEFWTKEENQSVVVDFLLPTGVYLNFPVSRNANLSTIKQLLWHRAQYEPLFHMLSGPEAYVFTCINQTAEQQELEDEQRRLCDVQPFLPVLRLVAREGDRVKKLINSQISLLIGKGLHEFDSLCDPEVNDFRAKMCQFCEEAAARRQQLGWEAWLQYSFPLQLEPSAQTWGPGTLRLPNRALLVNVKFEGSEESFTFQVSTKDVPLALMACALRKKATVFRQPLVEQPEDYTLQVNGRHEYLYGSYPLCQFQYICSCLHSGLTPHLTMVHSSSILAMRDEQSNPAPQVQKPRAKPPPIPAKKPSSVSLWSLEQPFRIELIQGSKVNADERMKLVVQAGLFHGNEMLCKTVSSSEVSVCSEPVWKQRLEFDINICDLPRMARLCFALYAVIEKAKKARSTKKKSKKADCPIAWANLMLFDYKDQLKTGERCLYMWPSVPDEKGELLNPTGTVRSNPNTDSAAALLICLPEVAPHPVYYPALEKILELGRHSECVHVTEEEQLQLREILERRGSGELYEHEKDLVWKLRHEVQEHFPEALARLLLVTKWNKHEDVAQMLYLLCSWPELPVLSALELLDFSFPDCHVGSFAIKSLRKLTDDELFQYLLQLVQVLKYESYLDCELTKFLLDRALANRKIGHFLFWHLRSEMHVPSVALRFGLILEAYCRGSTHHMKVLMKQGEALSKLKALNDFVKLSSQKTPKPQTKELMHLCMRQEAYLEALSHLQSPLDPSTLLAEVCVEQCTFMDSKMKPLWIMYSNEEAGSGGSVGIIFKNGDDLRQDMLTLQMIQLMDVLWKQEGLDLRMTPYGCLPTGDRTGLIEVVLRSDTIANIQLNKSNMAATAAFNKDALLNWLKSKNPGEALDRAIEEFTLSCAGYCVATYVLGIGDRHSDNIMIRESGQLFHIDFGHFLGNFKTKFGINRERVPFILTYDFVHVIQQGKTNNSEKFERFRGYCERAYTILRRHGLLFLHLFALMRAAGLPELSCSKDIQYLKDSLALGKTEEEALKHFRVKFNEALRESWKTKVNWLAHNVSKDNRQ
Sequence of PI3K p110δ/p85α (human) (P27986 whole entry partner): as the sequence (P27986 whole entry partner) above
The target of a further experiment is PI3K (p120γ) (human) (Homo sapiens (Human), UniProt P48736). The experiment can be described thus: PI3K (p120γ) (human), non-radioactive assay (HTRF). The class given is biochemical. The settings on record: read-out: IC50 (PI3Kgamma). The gist of the method:
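Enzyme was run with 10 μM phosphatidylinositol 4,5-bisphosphate, starting the reaction with MgATP at an unspecified level, for 30 min at room temperature. The stop used EDTA plus biotinylated PIP3, and detection used Eu-anti-GST, GST-GRP1 PH domain and streptavidin-APC. Signal was taken as HTRF = 10000×(Em665nm/Em620nm).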

Where two headings read alike, the source gives them in different places.

Sequence of PI3K (p120γ) (human) (P48736 whole entry, the tested form may be a part): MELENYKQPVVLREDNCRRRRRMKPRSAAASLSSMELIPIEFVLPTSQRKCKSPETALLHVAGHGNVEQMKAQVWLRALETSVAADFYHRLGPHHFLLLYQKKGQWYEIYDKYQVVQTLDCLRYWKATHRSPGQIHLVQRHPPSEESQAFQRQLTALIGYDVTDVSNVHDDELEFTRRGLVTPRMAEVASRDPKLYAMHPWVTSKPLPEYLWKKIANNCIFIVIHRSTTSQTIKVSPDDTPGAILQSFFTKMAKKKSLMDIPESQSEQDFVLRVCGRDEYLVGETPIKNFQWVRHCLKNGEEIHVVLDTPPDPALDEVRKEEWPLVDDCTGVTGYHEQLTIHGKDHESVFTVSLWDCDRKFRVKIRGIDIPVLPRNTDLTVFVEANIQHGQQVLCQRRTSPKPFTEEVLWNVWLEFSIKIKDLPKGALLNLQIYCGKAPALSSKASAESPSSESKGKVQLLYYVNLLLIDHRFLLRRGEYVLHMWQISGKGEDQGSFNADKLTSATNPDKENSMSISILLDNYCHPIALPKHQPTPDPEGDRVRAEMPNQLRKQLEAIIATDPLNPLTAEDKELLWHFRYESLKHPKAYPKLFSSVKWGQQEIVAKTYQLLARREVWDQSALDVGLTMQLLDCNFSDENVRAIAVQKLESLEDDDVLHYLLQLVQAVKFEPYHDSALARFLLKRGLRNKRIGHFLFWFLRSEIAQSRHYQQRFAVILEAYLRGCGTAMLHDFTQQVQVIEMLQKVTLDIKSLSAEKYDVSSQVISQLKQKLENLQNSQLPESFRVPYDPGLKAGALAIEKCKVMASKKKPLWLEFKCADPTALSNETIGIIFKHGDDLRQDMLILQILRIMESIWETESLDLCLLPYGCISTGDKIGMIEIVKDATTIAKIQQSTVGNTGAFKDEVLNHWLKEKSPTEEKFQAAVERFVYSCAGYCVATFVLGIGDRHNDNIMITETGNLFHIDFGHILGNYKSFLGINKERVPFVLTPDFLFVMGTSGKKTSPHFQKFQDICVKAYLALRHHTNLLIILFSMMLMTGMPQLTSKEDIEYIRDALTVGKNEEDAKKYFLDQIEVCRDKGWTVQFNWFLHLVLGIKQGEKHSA
Sequence of PI3K p110β/p85α (human) (P42338 whole entry): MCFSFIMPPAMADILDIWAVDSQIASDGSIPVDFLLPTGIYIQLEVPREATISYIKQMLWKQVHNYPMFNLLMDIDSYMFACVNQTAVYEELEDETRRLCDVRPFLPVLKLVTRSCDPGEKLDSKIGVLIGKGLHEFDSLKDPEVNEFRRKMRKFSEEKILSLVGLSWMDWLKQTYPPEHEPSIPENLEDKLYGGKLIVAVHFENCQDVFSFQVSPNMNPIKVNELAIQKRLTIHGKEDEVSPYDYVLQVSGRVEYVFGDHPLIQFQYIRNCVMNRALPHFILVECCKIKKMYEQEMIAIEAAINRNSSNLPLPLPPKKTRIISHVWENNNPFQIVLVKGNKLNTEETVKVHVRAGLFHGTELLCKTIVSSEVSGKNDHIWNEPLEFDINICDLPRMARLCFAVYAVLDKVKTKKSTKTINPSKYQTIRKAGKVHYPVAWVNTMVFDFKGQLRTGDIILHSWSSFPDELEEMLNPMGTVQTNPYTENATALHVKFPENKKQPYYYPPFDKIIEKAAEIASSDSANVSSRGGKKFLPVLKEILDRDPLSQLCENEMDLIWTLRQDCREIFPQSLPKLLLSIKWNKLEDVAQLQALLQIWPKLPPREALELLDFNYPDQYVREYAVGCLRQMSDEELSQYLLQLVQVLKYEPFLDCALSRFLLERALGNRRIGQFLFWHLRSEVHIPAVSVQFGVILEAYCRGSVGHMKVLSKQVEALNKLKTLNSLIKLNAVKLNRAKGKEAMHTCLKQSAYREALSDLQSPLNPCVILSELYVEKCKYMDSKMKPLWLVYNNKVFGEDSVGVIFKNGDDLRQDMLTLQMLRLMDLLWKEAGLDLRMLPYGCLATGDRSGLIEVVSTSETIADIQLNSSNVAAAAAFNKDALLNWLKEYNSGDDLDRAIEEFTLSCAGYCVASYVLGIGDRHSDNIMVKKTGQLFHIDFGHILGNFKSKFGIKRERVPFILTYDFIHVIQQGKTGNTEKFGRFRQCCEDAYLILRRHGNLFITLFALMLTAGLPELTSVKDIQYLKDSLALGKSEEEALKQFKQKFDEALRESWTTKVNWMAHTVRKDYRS
Sequence of PI3K p110β/p85α (human) (P27986 whole entry partner): as the sequence (P27986 whole entry partner) above

Regarding `COc1cc2ncc3c(c2cc1-c1cnn(C)c1)n(-c1ncc(F)cc1F)c(=O)n3C` [Compound Example 1, 1-(3,5-Difluoropyridin-2-yl)-7-methoxy-3-methyl-8-(l-methyl-1H-pyrazol-4-yl)-1,3-dihydroimidazo[4,5-c] quinolin-2-one], the IC50 is < 0.01 µM in experiment [1]; < 0.01 µM in experiment [1] (10 μM ATP, substrate p53); < 0.2 µM in experiment [2]; > 30 µM on mTOR (human); > 30 µM on PI3K p110α/p85α (human); > 30 µM at PI3K p110β/p85α (human). The IC50 on PI3K p110δ/p85α (human) and at PI3K (p120γ) (human) was > 30 µM in each case.

As for `COc1cc2ncc3c(c2cc1-c1cn[nH]c1)n(-c1c(F)cncc1F)c(=O)n3C` [Compound Example 2, 1-(3,5-Difluoropyridin-4-yl)-7-methoxy-3-methyl-8-(1H-pyrazol-4-yl)-1,3-dihydro-imidazo[4,5-c]quinolin-2-one], the IC50 is < 0.001 µM in experiment [1]; < 0.001 µM in experiment [1] (10 μM ATP, substrate p53); < 0.2 µM in experiment [2]; > 5 µM on mTOR (human); > 30 µM on PI3K p110α/p85α (human); > 30 µM at PI3K p110β/p85α (human). Further, the IC50 on PI3K p110δ/p85α (human) and on PI3K (p120γ) (human) was > 30 µM throughout.

With `COc1cc2ncc3c(c2cc1-c1cn(C)nc1C)n(-c1c(F)cncc1OC)c(=O)n3C` [Compound Example 4, 8-(1,3-Dimethyl-1H-pyrazol-4-yl)-1-(3-fluoro-5-methoxy-pyridin-4-yl)-7-methoxy-3-methyl-1,3-dihydroimidazo-[4,5-c]quinolin-2-one], the IC50 in experiment [2] is < 0.2 µM; on mTOR (human), > 30 µM; on PI3K p110α/p85α (human), > 5 µM; on PI3K p110β/p85α (human), > 30 µM; at PI3K p110δ/p85α (human) it was > 10 µM; at PI3K (p120γ) (human) it was > 30 µM.

Take `COc1cc2ncc3c(c2cc1-c1cnn(C)c1)n(-c1cn(C)nc1C)c(=O)n3C` [Compound Example 5, 1-(1,3-Dimethyl-1H-pyrazol-4-yl)-7-methoxy-3-methyl-8-(1-methyl-1H-pyrazol-4-yl)-1,3-dihydroimidazo[4,5-c]-quinolin-2-one]: the IC50 in experiment [1] was < 0.001 µM; in experiment [1] (10 μM ATP, substrate p53), < 0.001 µM; in experiment [2], < 0.2 µM; on mTOR (human), > 30 µM; at PI3K p110α/p85α (human) it was > 30 µM; at PI3K p110β/p85α (human), > 30 µM. In addition, the IC50 at PI3K p110δ/p85α (human) and on PI3K (p120γ) (human) was > 30 µM throughout.

In the case of `COc1cc2ncc3c(c2cc1-c1cn[nH]c1)n(-c1ncccc1F)c(=O)n3C` [Compound Example 7, 1-(3-Fluoropyridin-2-yl)-7-methoxy-3-methyl-8-(1H-pyrazol-4-yl)-1,3-dihydro-imidazo[4,5-c]quinolin-2-one], the IC50 is < 0.001 µM in experiment [1]; < 0.001 µM in experiment [1] (10 μM ATP, substrate p53); < 0.2 µM in experiment [2]; > 30 µM against mTOR (human); > 30 µM at PI3K p110α/p85α (human); > 30 µM on PI3K p110β/p85α (human). In addition, the IC50 on PI3K p110δ/p85α (human) and on PI3K (p120γ) (human) was > 30 µM in each case.

For the compound `COc1cc2ncc3c(c2cc1-c1cn[nH]c1)n(-c1c(C)cncc1F)c(=O)n3C` [Compound Example 8, 1-(3-Fluoro-5-methylpyridin-4-yl)-7-methoxy-3-methyl-8-(1H-pyrazol-4-yl)-1,3-dihydroimidazo[4,5-c] quinolin-2-one], the IC50 in experiment [1] was < 0.001 µM; in experiment [1] (10 μM ATP, substrate p53), < 0.001 µM; in experiment [2], < 0.2 µM; on mTOR (human), > 5 µM; at PI3K p110α/p85α (human), > 30 µM; at PI3K p110β/p85α (human), > 30 µM. Moreover, the IC50 at PI3K p110δ/p85α (human) and on PI3K (p120γ) (human) was > 30 µM each time.

For `COc1cc2ncc3c(c2cc1-c1cn[nH]c1)n(-c1ccncc1F)c(=O)n3C` [Compound Example 9, 1-(3-Fluoropyridin-4-yl)-7-methoxy-3-methyl-8-(1H-pyrazol-4-yl)-1,3-dihydro-imidazo[4,5-c]quinolin-2-one], the IC50 in experiment [1] was < 0.001 µM; in experiment [1] (10 μM ATP, substrate p53) it was < 0.001 µM; in experiment [2], < 0.2 µM; on mTOR (human) it was > 10 µM; on PI3K p110α/p85α (human) it was > 30 µM; at PI3K p110β/p85α (human), > 30 µM. For the same compound, the IC50 on PI3K p110δ/p85α (human) and at PI3K (p120γ) (human) was > 30 µM each time.

As to `COc1cc2ncc3c(c2cc1-c1cn(C)nc1C)n(-c1cn(C)nc1C)c(=O)n3C` [Compound Example 10, 1,8-Bis-(1,3-dimethyl-1H-pyrazol-4-yl)-7-methoxy-3-methyl-1,3-dihydroimidazo-[4,5-c]quinolin-2-one], the IC50 in experiment [1] is < 0.001 µM; in experiment [1] (10 μM ATP, substrate p53), < 0.001 µM; in experiment [2], < 0.2 µM; against mTOR (human), > 30 µM; on PI3K p110α/p85α (human), > 30 µM; at PI3K p110β/p85α (human), > 30 µM. In addition, the IC50 on PI3K p110δ/p85α (human) and on PI3K (p120γ) (human) was > 30 µM in each case.

On to `COc1cc2ncc3c(c2cc1-c1cn(C)nc1C)n(-c1ncc(F)cc1F)c(=O)n3C` [Compound Example 11, 1-(3,5-Difluoropyridin-2-yl)-8-(1,3-dimethyl-1H-pyrazol-4-yl)-7-methoxy-3-methyl-1,3-dihydroimidazo[4,5-c]-quinolin-2-one], for which the IC50 is < 0.001 µM in experiment [1]; < 0.001 µM in experiment [1] (10 μM ATP, substrate p53); < 0.2 µM in experiment [2]; > 30 µM against mTOR (human); > 30 µM at PI3K p110α/p85α (human); > 30 µM on PI3K p110β/p85α (human). For the same compound, the IC50 at PI3K p110δ/p85α (human) and on PI3K (p120γ) (human) was > 30 µM in each case.

Consider `CCc1cncc(F)c1-n1c(=O)n(C)c2cnc3cc(OC)c(-c4cnn(C)c4)cc3c21` [Compound Example 12, 1-(3-Ethyl-5-fluoropyridin-4-yl)-7-methoxy-3-methyl-8-(1-methyl-1H-pyrazol-4-yl)-1,3-dihydroimidazo[4,5-c]-quinolin-2-one], for which the IC50 in experiment [1] was < 0.001 µM; in experiment [1] (10 μM ATP, substrate p53), < 0.001 µM; in experiment [2], < 0.2 µM; against mTOR (human), > 30 µM; on PI3K p110α/p85α (human), > 30 µM; on PI3K p110β/p85α (human), > 30 µM. The IC50 at PI3K p110δ/p85α (human) and at PI3K (p120γ) (human) was > 30 µM in each case.

`COc1cc2ncc3c(c2cc1-c1cnn(C)c1)n(-c1ncccc1F)c(=O)n3C` [Compound Example 14, 1-(3-Fluoropyridin-2-yl)-7-methoxy-3-methyl-8-(1-methyl-1H-pyrazol-4-yl)-1,3-dihydroimidazo[4,5-c]-quinolin-2-one]: the IC50 is < 0.001 µM in experiment [1]; < 0.001 µM in experiment [1] (10 μM ATP, substrate p53); < 0.2 µM in experiment [2]; > 30 µM on mTOR (human); > 30 µM on PI3K p110α/p85α (human); > 30 µM on PI3K p110β/p85α (human). The IC50 on PI3K p110δ/p85α (human) and at PI3K (p120γ) (human) was > 30 µM throughout.

Take `COc1cc2ncc3c(c2cc1-c1cnn(C)c1)n(-c1c(F)cncc1OC)c(=O)n3C` [Compound Example 15, 1-(3-Fluoro-5-methoxypyridin-4-yl)-7-methoxy-3-methyl-8-(1-methyl-1H-pyrazol-4-yl)-1,3-dihydroimidazo[4,5-c]-quinolin-2-one]: the IC50 in experiment [1] is < 0.001 µM; in experiment [1] (10 μM ATP, substrate p53), < 0.001 µM; in experiment [2], < 0.2 µM; on mTOR (human), > 30 µM; on PI3K p110α/p85α (human), > 30 µM; on PI3K p110β/p85α (human), > 30 µM. The IC50 at PI3K p110δ/p85α (human) and at PI3K (p120γ) (human) was > 30 µM throughout.
